Source: article PMC12040169 (PLOS Biology, 2025)

Assay: in vitro
Conditions: human, hela cells, % viability

Row | SMILES | viability at 28.5 h, 10 µM | viability at 28.5 h, 10 µM (bulk resorufin, single well)
1 | FC(F)(F)Oc1ccc(-c2c[nH]c([C@@H]3COCCN3Cc3c[nH]cn3)n2)cc1 [CBK289303] | 111% | –
2 | Nc1ncc(-c2cc(C(F)(F)F)cc(C(F)(F)F)c2)nc1NC1CCC(O)CC1 (stereo not drawn) [CBK063808] | 92% | –
3 | O=C(CC1Sc2ccc(Cl)cc2NC1=O)Nc1ccc([N+](=O)[O-])cc1 (stereo not drawn) [CBK264860] | 98% | –
4 | Cn1cc(N2CCC(NC(=O)c3ccc(C#N)cc3)C2=O)cn1 (stereo not drawn) [CBK305182] | 94% | –
5 | CCc1ncc2c(n1)CN(Cc1cc(=O)n3cccc(C)c3n1)CC2 [CBK305914] | 84.6% | –
6 | CNS(=O)(=O)c1ccc(CCC(=O)N(C)Cc2cnn(C)c2)cc1 [CBK305712] | 84.9% | –
7 | COc1ccccc1CN(C)C(C)C(=O)Nc1ccc(S(N)(=O)=O)cc1 (stereo not drawn) [CBK305839] | 90.1% | –
8 | Cc1ccn2cc(CNC(=O)CCC(C)N3CCN(C)CC3)nc2c1 (stereo not drawn) [CBK306628] | 97.2% | –
9 | COc1ccc(C(=O)Nc2ccccc2)cc1NC(=O)c1cc(C(F)(F)F)cc(C(F)(F)F)c1 [CBK263465] | 90% | –
10 | Nc1nc2cccnc2cc1-c1ccsc1 [CBK081214] | 85.8% | –
11 | CC(=O)Nc1ccc(NCc2nc(C(C)C)no2)c(C(F)(F)F)c1 [CBK305743] | 101% | –
12 | Cc1ccc(NS(=O)(=O)c2ccc(OC(F)(F)F)cc2)c(CO)c1 [CBK043267] | 86.8% | –
13 | Cn1cc(C(C(=O)O)N2CCN(c3ccccc3)CC2)c2cc(C(=O)O)ccc21 (stereo not drawn) [CBK286627] | 115% | –
14 | CC(C)NS(=O)(=O)c1ccc(OCC(=O)Nc2ccc3c(c2)OCCO3)cc1 [CBK265915] | 106% | –
15 | COc1cccc2cc(C(=O)NCc3ccc(Cl)c(Cl)c3)oc12 [CBK149795] | 85.2% | –
16 | O=[N+]([O-])c1cc2c(cc1CN1CCN(Cc3ccccc3)CC1)OCO2 [CBK261548] | 94.7% | –
17 | OCC1CCCCC1NCCCC(c1ccc(F)cc1)c1ccc(F)cc1 (stereo not drawn) [CBK015830C] | 104% | –
18 | CCCCc1ccc(-c2cnc3nc(O)ccc3c2)cc1 [CBK081296] | 69.9% | –
19 | C=CCNC(=O)Cn1c(-c2ccc(OC)cc2)cc2cccnc21 [CBK285363] | 83.2% | –
20 | O=[N+]([O-])c1ccc(OCC(O)CN2CCCN(c3nc4ccc(Cl)cc4s3)CC2)cc1 (stereo not drawn) [CBK074647] | 85.9% | –
21 | C/C(=N\Nc1ccc(Cl)c(Cl)c1)c1cccnc1 [CBK015914C] | 93.3% | –
22 | CC1(C)C(=O)OC(C(=O)c2ccc(Br)cc2)C(C)(C)C1=O (stereo not drawn) [CBK264600] | 90.3% | –
23 | O=C(Nc1ccc(Br)c2cccnc12)c1ccc(COc2ccccc2)cc1 [CBK266062] | 94.2% | –

Row | SMILES | viability at 28.5 h, 10 µM | viability at 28.5 h, 10 µM (bulk resorufin, single well)
24 | Cc1cc(C(=O)C(C)Sc2nnc(N)s2)c(C)n1-c1ccccc1 (stereo not drawn) [CBK297916] | 87% | –
25 | CCCc1ccc(S(=O)(=O)Nc2cccc(C(=O)OCC)c2)cc1 [CBK034332] | 92.5% | –
26 | CC1CCCC(C)N1CC(O)COc1ccc(/N=C/c2ccccc2O)cc1 (stereo not drawn) [CBK261748] | 89.6% | –
27 | Nc1c(Cl)cc(NC(=O)CCCC(=O)O)cc1Cl [CBK263957] | 91% | –
28 | C/C(=N\NC(=O)C1CC1)c1ccc(C)cc1 [CBK016047] | 90.7% | –
29 | COc1cnc(-c2ccccc2OC)c(NC(=O)c2ccccc2)n1 [CBK145261] | 101% | –
30 | COc1ccc(-c2cncc(N(C)CCN(C)C)n2)cc1 [CBK037832] | 101% | –
31 | CN1CC(CO)CCC1Cc1c[nH]c2ccccc12 (stereo not drawn) [CBK011468] | 92.4% | –
32 | Nc1c(C(=O)NCC2CCCO2)c2nc3ccccc3nc2n1C1CCCC1 (stereo not drawn) [CBK269217] | 112% | –
33 | Cn1ccnc1C(NC(=O)N1CCOCC1)c1ccc(F)c(F)c1 (stereo not drawn) [CBK283781] | 87.4% | –
34 | CC(C)(C)OC(=O)N1CCCC(C(=O)Nc2ccccn2)C1 (stereo not drawn) [CBK304524] | 95.4% | –
35 | Cc1cccn2c(=O)cc(CN3CCC(c4ccn[nH]4)CC3)nc12 [CBK305951] | 93.2% | –
36 | CS(=O)(=O)c1ccc(-c2ccc(C(=O)N3CCN(Cc4ccc(F)c(F)c4)CC3)nc2)cc1 [CBK160485] | 87.4% | –
37 | CCNC(=O)N1CC[C@H]2CC(=O)N(Cc3cccnc3)CC[C@H]2C1 [CBK288792] | 85.6% | –
38 | CCN1CCN(Cc2ccccc2[N+](=O)[O-])CC1 [CBK261561] | 109% | –
39 | Cc1ccc(Nc2nc(N)nc(CSc3nccn3C)n2)cc1 [CBK266468] | 113% | –
40 | CC(=O)Nc1cccc(-c2cnc(N)c(NC3CCOCC3)n2)c1 [CBK063845] | 107% | –
41 | CC(NC(=O)c1cnc(-c2cccc(C(F)(F)F)c2)c(-c2ccncc2)c1)c1ccc(F)cc1 (stereo not drawn) [CBK037556] | 99.7% | –
42 | c1ccc(C(Nc2ncc(-c3cnccn3)c(-c3ccco3)n2)c2ccccc2)cc1 [CBK286413] | 90% | –
43 | Cn1c(CN2CCN(C3CCCCC3)C(=O)C2)nc2ccccc21 [CBK281893] | 90.9% | –
44 | CCN(CC)C(=O)c1ccccc1NS(=O)(=O)c1ccc(OC)c(OC)c1 [CBK045423] | 92.6% | –
45 | O=C(O)CC1S/C(=N/N=C2/C(=O)Nc3ccccc32)N(c2ccc(O)cc2)C1=O (stereo not drawn) [CBK263723] | 93% | –
46 | O=C(CSc1nnc(-c2ccc(Cl)cc2)n1-c1ccccc1)N/N=C/c1ccccn1 [CBK263001] | 94.6% | –

Row | SMILES | viability at 28.5 h, 10 µM | viability at 28.5 h, 10 µM (bulk resorufin, single well)
47 | CN(Cc1ccccc1)c1nccnc1-c1ccc(F)c(Cl)c1 [CBK037997] | 107% | –
48 | COCCNc1cc(-c2cccc3oc4ccccc4c23)ncn1 [CBK090794] | 101% | –
49 | N#Cc1cccc(C(=O)N2CCC3(CCN(C(=O)c4cc(F)c(F)cc4F)C3)C2)c1 (stereo not drawn) [CBK131387] | 97.2% | –
50 | O=C(NCCCc1nc2cc(F)ccc2[nH]1)[C@@H]1C[C@@H]2C=C[C@H]1C2 [CBK281665] | 103% | –
51 | O=C(O)c1ccc(CNCCN2CCOCC2)cc1 [CBK287223] | 101% | –
52 | O=S(=O)(c1ccc(OC(F)(F)F)cc1)N1CCCCC1CO (stereo not drawn) [CBK051527] | 91.7% | –
53 | O=P(O)(CCc1ccccn1)CN1CCCCC1 [CBK262312] | 97.2% | –
54 | CCOc1ccc(CN2CCNC(=O)C2CC(=O)O)cc1 (stereo not drawn) [CBK269242] | 107% | –
55 | Cc1nc2sc3c(c2c2nc(-c4ccncc4)nn12)CCCC3 [CBK288541] | 94.5% | –
56 | Cc1ccc(-c2ncc(OCCn3ccnc3)nc2N)cc1C [CBK145148] | 102% | –
57 | COc1ccc(C(=O)NCCCCCC(=O)O)cc1 [CBK287146] | 109% | –
58 | N#CCCN(CCC#N)C(=O)CN1C(=O)c2ccccc2C1=O [CBK267100] | 89% | –
59 | CN(C)Cc1ccc2nc(C(F)(F)F)cc(SCCC(=O)O)c2c1 [CBK149715T] | 91.4% | –
60 | O=C1NN=C(Cc2ccccc2)C1c1ccccc1 (stereo not drawn) [CBK067757] | 95.6% | –
61 | CN(C)CC1CN(C(=O)Cc2ccccc2F)Cc2ccccc2O1 (stereo not drawn) [CBK285327] | 90.4% | –
62 | COc1cccc(C(=O)NCCC(=O)N2CCc3sccc3C2)c1 [CBK305376] | 108% | –
63 | CCn1c(COc2cccc3cccnc23)nnc1SCC(=O)c1ccc(F)cc1 [CBK265656] | 86.8% | –
64 | C=CCN(c1ccccc1)S(=O)(=O)c1ccc(C(C)(C)CC)cc1 [CBK200036] | 95.7% | –
65 | Nc1nnc(C(F)(F)F)s1 [CBK038099] | 119% | –
66 | O=[N+]([O-])c1ccc(/C=N/Nc2nnc3c(n2)[nH]c2ccccc23)cc1 [CBK261486] | 97.8% | –
67 | NC(=O)CSc1nnc(COc2ccc(Br)cc2)n1-c1ccccc1 [CBK267277] | 101% | –
68 | CCC(CO)Nc1nccnc1-c1cccc(C(=O)N2CCN(C)CC2)c1 (stereo not drawn) [CBK037087] | 92.6% | –
69 | CC(C)CNc1cc(Cl)c(S(=O)(=O)NCC(C)C)cc1C(=O)O [CBK263405] | 93.5% | –

Row | SMILES | viability at 28.5 h, 10 µM | viability at 28.5 h, 10 µM (bulk resorufin, single well)
70 | CCOC(=O)C1CCCN(C(=O)Cn2cnc(-c3cccs3)cc2=O)C1 (stereo not drawn) [CBK304210] | 89.3% | –
71 | Nc1ncc(-c2cccc3cccnc23)nc1N1CCC[C@@H]1CO [CBK063470] | 108% | –
72 | O=C(O)CCc1ccc(-c2cccs2)n1CCc1ccccc1 [CBK265983] | 113% | –
73 | Cc1nn(C(C)C)c(C)c1CN(Cc1ccccn1)Cc1ccco1 [CBK283221] | 114% | –
74 | NS(=O)(=O)c1cccc2c1CC1(CC2)OCCO1 [CBK010703] | 84.6% | –
75 | Cn1nc(C2CCN(C(=O)C3CCCC3)CC2)c2cccnc21 [CBK284899] | 101% | –
76 | Nc1nc(N)c2ncn([C@H]3C[C@@H](O)[C@@H](CO)O3)c2n1 [CBK201208] | 97.4% | –
77 | CSc1cc(C)c2c(c1)COC1(CCN(C(=O)N[C@@H](C)c3ccccc3)CC1)O2 [CBK060747] | – | 94.5%
78 | CC(C)CN1CCC2(CC=CCN(Cc3ccc(F)cc3)C2=O)CC1 [CBK285521] | 116% | –
79 | CCC1CCCCN1C(=O)c1cc(C)nc(Cl)c1 (stereo not drawn) [CBK076748] | 102% | –
80 | CN(C)CC(C)(C)CNC(=O)C1=CC(=O)CC(C)(C)O1 [CBK153291] | 103% | –
81 | O=C(O)C1CCCCC1c1nnc(S)[nH]1 (stereo not drawn) [CBK266490] | 96.4% | –
82 | O=C(c1cccs1)N1CCOC(Cn2ccnc2)C1 (stereo not drawn) [CBK282256] | 103% | –
83 | CC(=O)Nc1ccc(N(CC(O)Cn2c3ccccc3c3ccccc32)S(C)(=O)=O)cc1 (stereo not drawn) [CBK264352] | 96.7% | –
84 | COc1cc(C(=O)N2CCC3(CC2)NC(=O)c2cc(C)ccc2O3)cc(OC)c1C [CBK166273] | 91% | –
85 | Cc1noc(C)c1C(=O)N1CCC(c2nc(C)n3ccsc23)CC1 [CBK285239] | 101% | –
86 | COc1ccc2cc(/C=C(\C#N)c3nc(-c4cc5c(ccc6ccccc65)oc4=O)cs3)c(Cl)nc2c1 [CBK261636] | 94% | –
87 | O=C(CSc1nnc(-c2ccncc2)n1Cc1ccccc1)Nc1ccc(Cl)cc1 [CBK269346] | 97.3% | –
88 | CCOCc1nc2c(c(NCCn3cccn3)n1)CCN(C(C)=O)CC2 [CBK307707] | 98.3% | –
89 | Cc1cc(NC(=O)C2CCN(C(=O)CNc3ccccc3)CC2)no1 [CBK304297C] | 85.9% | –
90 | Cc1nc(N)sc1-c1nnc(SC/C=C/c2ccccc2)n1C [CBK269383] | 81.7% | –
